Patent US20240287097A1, “COMPOUNDS AND METHODS FOR MODULATING SPLICING” (REMIX THERAPEUTICS INC., priority 2020, published 2024)

Columns and labels:
Assay type in all cases: cell-based
[1] = tested on: HTT mRNA, canonical junction (CJ); assay: Splicing RT-qPCR assay, HTT canonical junction (CJ) mRNA decrease; conditions: A673 or K562 cells, 24 hours compound treatment, 50% response in CJ decrease
Protocol: (§1) Compounds described herein were used to modulate RNA transcript abundance in cells. The expression of a target mRNA was measured by detecting the formation of an exon-exon junction in the canonical transcript (CJ). A compound mediated exon-inclusion event was detected by observing an increase in formation of a new junction with an alternative exon (AJ). Real-time qPCR assays were used to detect these splicing switches and interrogate the potency of various compounds towards different target genes. A high-throughput real time quantitative PCR (RT-qPCR) assay was developed to measure these two isoforms of the mRNA (CJ and AJ) for an exemplary gene, HTT, together with a control housekeeping gene, GAPDH or GUSB or PPIA, used for normalization. Briefly, the A673 or K562 cell line was treated with various compounds described herein (e.g., compounds of Formula (I)). After treatment, the levels of the HTT mRNA targets were determined from each sample of cell lysate by cDNA synthesis followed by qPCR.
(§2) • Cells-to-CT 1-step kit: ThermoFisher A25602, Cells-to-CT lysis reagent: ThermoFisher 4391851C, TagMan™ Fast Virus 1-Step Master Mix: ThermoFisher 4444436 • GAPDH: VIC-PL, ThermoFisher 4326317E (Assay: Hs99999905 m1)—used for K562/suspension cell lines • GUSB: VIC-PL, ThermoFisher 4326320E (Assay: Hs99999908 m1)—used for K562/suspension cell lines • PPIA: VIC-PL, ThermoFisher 4326316E (Assay: Hs99999904 m1)—used for A673/adherent cell lines
(§3) The A673 cell line was cultured in DMEM with 10% FBS. Cells were diluted with full growth media and plated in a 96-well plate (15,000 cells in 100 ul media per well). The plate was incubated at 37° C. with 5% CO2 for 24 hours to allow cells to adhere. An 11-point 3-fold serial dilution of the compounds was made in DMSO then diluted in media in an intermediate plate. Compounds were transferred from the intermediate plate to the cell plate with the top dose at a final concentration of 10 uM in the well. Final DMSO concentration was kept at or below 0.25%. The cell plate was returned to the incubator at 37° C. with 5% CO2 for an additional 24 hours.
(§4) The K562 cell line was cultured in IMDM with 10% FBS. For K562, cells were diluted with full growth media and plated in either a 96-well plate (50,000 cells in 50 uL media per well) or a 384-well plate (8,000-40,000 cells in 45 uL media per well). An 11-point 3-fold serial dilution of the compounds were made in DMSO then diluted in media in an intermediate plate. Compound was transferred from the intermediate plate to the cell plate with the top dose at a final concentration of 10 uM in the well. Final DMSO concentration was kept at or below 0.25%. Final volume was 100 uL for 96-well plate and 50 uL for 384-well plate. The cell plate was then placed in an incubator at 37° C. with 5% CO2 for 24 hours.
(§5) The cells were then gently washed with 50 uL-100 uL cold PBS before proceeding to addition of lysis buffer. 30 uL-50 uL of room temperature lysis buffer with DNAse I (and optionally RNAsin) was added to each well. Cells were shaken/mixed thoroughly at room temperature for 5-10 minutes for lysis to take place and then 3 uL-5 uL of room temperature stop solution was added and wells were shaken/mixed again. After 2-5 minutes, the cell lysate plate was transferred to ice for RT-qPCR reaction setup. The lysates could also be frozen at ˜80° C. for later use.
(§6) In some cases, a direct lysis buffer was used. An appropriate volume of 3×lysis buffer (10 mM Tris, 150 mM NaCl, 1.5%-2.5% Igepal and 0.1-1 U/uL RNAsin, pH 7.4) was directly added to either K562 or A673 cells in media and mixed by pipetting 3 times. The plates were then incubated at room temperature with shaking/rocking for 20-50 minutes to allow for lysis to take place. After this time, the cell lysate plate was transferred to ice to set up for the RT-qPCR reactions. The lysates could also be frozen at −80° C. for later use. […]

SMN2 CJ mRNA transcript = assay: Gene panel canonical junction qPCR assay, SMN2; conditions: 50% response in CJ decrease, read-out: SMN2 IC50 (decrease in CJ mRNA levels)
Protocol: as §1, §3, §4
(§7) The data analysis was performed by first determining the ΔCt vs the housekeeper gene. This ΔCt was then normalized against the DMSO control (ΔΔCt) and converted to RQ (relative quantification) using the 2^(−ΔΔCt) equation. The RQ were then converted to a percentage response by arbitrarily setting an assay window of 3.5 ΔCt for HTT-CJ and an assay window of 9 ΔCt for HTT-AJ. […] The percentage response was then fitted to the 4 parametric logistic equation to evaluate the concentration dependence of compound treatment. The increase in AJ mRNA is reported as AC50 (compound concentration having 50% response in AJ increase) while the decrease in CJ mRNA levels is reported as IC50 (compound concentration having 50% response in CJ decrease).
(§8) Additional studies were carried out for a larger panel of genes using the protocol provided above. The junction between flanking upstream and downstream exons was used to design canonical junction qPCR assays. At least one of the forward primer, reverse primer or the CY5-labeled 5′ nuclease probe (with 3′ quencher such as ZEN/Iowa Black FQ) was designed to overlap with the exon junction to capture the CJ mRNA transcript. BLAST was used to confirm the specificity of the probeset and parameters such as melting temperature, GC content, amplicon size, and primer dimer formation are considered during their design. Data for the decrease in CJ mRNA levels for three exemplary genes (HTT, SMN2, and Target C) analyzed in this panel are reported as IC50 (compound concentration having 50% response in CJ decrease).

[2] = tested on: Target C CJ mRNA transcript; assay: Gene panel canonical junction qPCR assay, Target C; conditions: 50% response in CJ decrease, read-out: Target C IC50 (decrease in CJ mRNA levels)
Protocol: as §1, §3, §4, §7, §8

HTT CJ mRNA transcript = assay: Gene panel canonical junction qPCR assay, HTT; conditions: 50% response in CJ decrease, read-out: HTT IC50 (decrease in CJ mRNA levels)
Protocol: as §1, §3, §4, §7, §8

[3] = tested on: HTT mRNA, alternative junction (AJ); assay: Splicing RT-qPCR assay, HTT alternative junction (AJ) mRNA increase; conditions: A673 or K562 cells, 24 hours compound treatment, 50% response in AJ increase
Protocol: as §1, §2, §3, §4, §5, §6

SMILES | AC50 [1] | IC50 (SMN2 CJ mRNA transcript) | IC50 [2] | IC50 (HTT CJ mRNA transcript) | AC50 [3]
CN1CCC(c2nc3c(=O)n(-c4ccc5nn(C)cc5c4)cnc3s2)CC1 [Compound 176, 6-(2-methyl-2H-indazol-5-yl)-2-(1-methylpiperidin-4-yl)thiazolo[5,4-d]pyrimidin-7(6H)-one] | > 10 µM | > 10 µM | > 10 µM | > 10 µM | > 10 µM
Cc1cc(-c2nc3c(=O)n(C4CCN(C)CC4)cnc3s2)cc2cn(C)nc12 [Compound 179, 2-(2,7-dimethyl-2H-indazol-5-yl)-6-(1-methylpiperidin-4-yl)thiazolo[5,4-d]pyrimidin-7(6H)-one] | > 10 µM | 0.1 to 1 µM |  | > 10 µM | > 10 µM
CN1CCN(c2nc3c(=O)n(-c4ccc5nn(C)cc5c4)cnc3s2)CC1 [Compound 181, 6-(2-methyl-2H-indazol-5-yl)-2-(4-methylpiperazin-1-yl)thiazolo[5,4-d]pyrimidin-7(6H)-one] | > 10 µM | > 10 µM |  | > 10 µM | > 10 µM
Cn1cc2cc(-n3cnc4sc(N5CCN(Cc6ccc(F)cc6)CC5)nc4c3=O)ccc2n1 [Compound 185, 2-(4-(4-fluorobenzyl)piperazin-1-yl)-6-(2-methyl-2H-indazol-5-yl)thiazolo[5,4-d]pyrimidin-7(6H)-one] | > 10 µM | > 10 µM |  | > 10 µM | > 10 µM
Cc1cn2cc(-c3nc4c(=O)n(C5CCN(C)CC5)cnc4s3)cc(F)c2n1 [Compound 186, 2-(8-fluoro-2-methylimidazo[1,2-a]pyridin-6-yl)-6-(1-methylpiperidin-4-yl)thiazolo[5,4-d]pyrimidin-7(6H)-one] | 1 to 10 µM | 1 to 10 µM |  | 1 to 10 µM | 1 to 10 µM
Cc1cc(-c2nc3c(=O)n(C4CC(C)(C)N(C=O)C(C)(C)C4)cnc3s2)cc2cn(C)nc12 [Compound 187, 4-(2-(2,7-dimethyl-2H-indazol-5-yl)-7-oxothiazolo[5,4-d]pyrimidin-6(7H)-yl)-2,2,6,6-tetramethylpiperidine-1-carbaldehyde] | 1 to 10 µM | > 10 µM |  | 1 to 10 µM | > 10 µM
CN1CC=C(c2nc3c(=O)n(-c4ccc5nn(C)cc5c4)cnc3s2)CC1 [Compound 188, 2-(1-methyl-1,2,3,6-tetrahydropyridin-4-yl)-6-(2-methyl-2H-indazol-5-yl)thiazolo[5,4-d]pyrimidin-7(6H)-one] | > 10 µM | > 10 µM | 1 to 10 µM | > 10 µM | > 10 µM
CN1CCC(Nc2nc3c(=O)n(-c4ccc5nn(C)cc5c4)cnc3s2)CC1 [Compound 189, 6-(2-methyl-2H-indazol-5-yl)-2-((1-methylpiperidin-4-yl)amino)thiazolo[5,4-d]pyrimidin-7(6H)-one] | > 10 µM | > 10 µM | > 10 µM | > 10 µM | > 10 µM
CN1CCC(N(C)c2nc3c(=O)n(-c4ccc5nn(C)cc5c4)cnc3s2)CC1 [Compound 190, 2-(methyl(1-methylpiperidin-4-yl)amino)-6-(2-methyl-2H-indazol-5-yl)thiazolo[5,4-d]pyrimidin-7(6H)-one] | > 10 µM | > 10 µM | > 10 µM | > 10 µM | > 10 µM
Cn1cc2cc(-n3cnc4sc(N5CCNCC5)nc4c3=O)ccc2n1 [Compound 219, 6-(2-methyl-2H-indazol-5-yl)-2-(piperazin-1-yl)thiazolo[5,4-d]pyrimidin-7(6H)-one] | > 10 µM | > 10 µM | > 10 µM | > 10 µM | > 10 µM
Cc1cn2cc(-n3cnc4sc(N5CCNCC5)nc4c3=O)cc(F)c2n1 [Compound 220, 6-(8-fluoro-2-methylimidazo[1,2-a]pyridin-6-yl)-2-(piperazin-1-yl)thiazolo[5,4-d]pyrimidin-7(6H)-one] | > 10 µM | > 10 µM | 1 to 10 µM | > 10 µM | > 10 µM
Cc1cn2cc(-n3cnc4sc(N5CCN(C)CC5)nc4c3=O)cc(F)c2n1 [Compound 221, 6-(8-fluoro-2-methylimidazo[1,2-a]pyridin-6-yl)-2-(4-methylpiperazin-1-yl)thiazolo[5,4-d]pyrimidin-7(6H)-one] | > 10 µM | > 10 µM | > 10 µM | > 10 µM | > 10 µM
Cc1cn2cc(-n3cnc4sc(N5CCNCC5)nc4c3=O)cc(C(F)(F)F)c2n1 [Compound 223, 6-(2-methyl-8-(trifluoromethyl)imidazo[1,2-a]pyridin-6-yl)-2-(piperazin-1-yl)thiazolo[5,4-d]pyrimidin-7(6H)-one] | > 10 µM | > 10 µM | > 10 µM | > 10 µM | > 10 µM
Cc1cn2cc(-n3cnc4sc(N5CCN(C)CC5)nc4c3=O)cc(C(F)(F)F)c2n1 [Compound 224, 6-(2-methyl-8-(trifluoromethyl)imidazo[1,2-a]pyridin-6-yl)-2-(4-methylpiperazin-1-yl)thiazolo[5,4-d]pyrimidin-7(6H)-one] | > 10 µM |  |  |  | > 10 µM
